Source: PubChem BioAssay AID1996
In brackets after ≈: the same amount, converted by molar mass.

Details: buffer; pH 7.4; 200.0 µM

| Compound | solubility kinetic |
| --- | --- |
| COc1cccc(C(=O)Nc2ccc(NC(=O)C3CCCCC3)nc2)c1 | 2 µg/mL (≈ 5.66 µM) |
| CNc1nc(-c2ccccc2)[n+](-c2ccc(C)cc2)s1.[Br-] | 42.1 µg/mL |
| Cc1cnc(NC(=O)c2cccs2)s1 | 28.1 µg/mL (≈ 125 µM) |
| CC(C)N(Cc1ccccc1)C(=O)COC(=O)c1cnccn1 | > 47 µg/mL |
| COc1cc2c(cc1OC)C(C)N(C(=O)c1cc(Cl)nc(Cl)c1)CC2 (centres undefined) | 17.1 µg/mL (≈ 44.9 µM) |
| O=C(NC1CC1)c1cccc(NC(=O)c2cn3ccccc3n2)c1 | > 48.1 µg/mL |
| Cc1sc2nc(CC(=O)N3CCCC3)[nH]c(=O)c2c1C | > 43.7 µg/mL |
| CSc1ncccc1C(=O)Nc1nccs1 | > 37.7 µg/mL |
| O=C(NC1CN2CCC1CC2)c1cccc(Cl)c1 (centres undefined) | > 39.7 µg/mL |
| CN(CC(=O)OCC(N)=O)S(=O)(=O)c1ccc(Cl)cc1 | > 48.1 µg/mL |
| Cc1onc(-c2ccccc2)c1CNC(=O)Nc1ccc(C(F)(F)F)cc1 | 0.4 µg/mL (≈ 1.07 µM) |
| O=C1COc2ccc(C(=O)CCl)cc2N1 | > 33.8 µg/mL |
| NC(=O)CCn1ccc2ccccc21 | > 28.2 µg/mL |
| Cc1cc(OCCn2ccnc2)cc(C)c1Cl | 30.8 µg/mL (≈ 123 µM) |
| CCCCCCCCN=Cc1c(O)[nH]c(=O)[nH]c1=O | 1 µg/mL (≈ 3.74 µM) |
| CC(C)c1ccc(OCC(=O)N2CCc3ccccc3C2)cc1 | 9 µg/mL (≈ 29.1 µM) |
| CCCCCCOc1ccc(C(=O)NCCCn2ccnc2)cc1 | > 49.4 µg/mL |
| CC(=O)c1c(C)[nH]c(C(=O)OCC(=O)Nc2cccnc2Cl)c1C | > 52.5 µg/mL |
| Cc1c(NC2=CC(=O)CC(C)(C)C2)c(=O)n(-c2ccccc2)n1C | > 48.8 µg/mL |
| CCOC(=O)/C=C/C(=O)OCC(=O)Nc1ccc(Cl)cc1Cl | 8.8 µg/mL (≈ 25.4 µM) |
| C=C(c1ccccc1O)n1ccnc1 | > 27.9 µg/mL |
| CCOC(=O)c1cccc(NC(=S)NCc2ccc(C)cc2)c1 | 0.4 µg/mL (≈ 1.22 µM) |
| Cc1ccccc1-n1ccnc1SCC(=O)NC1CCCC1 | > 47.3 µg/mL |
| O=C(NC1CCCCCC1)c1cccc(S(=O)(=O)N2CCOCC2)c1 | 6.5 µg/mL (≈ 17.7 µM) |
| CCc1ccc(C(C)NC(=O)c2ccc3c(c2)OCO3)cc1 (centres undefined) | 1.6 µg/mL (≈ 5.38 µM) |
| CCN(CC)c1nc(C)nc2c1sc(=S)n2C | 0.6 µg/mL (≈ 2.24 µM) |

| Compound | solubility kinetic |
| --- | --- |
| Cc1nc2ccccc2n1CC(=O)OCC(=O)N1CCC(C)CC1 | > 49.4 µg/mL |
| CCOC(=O)CNc1nc(Cl)nc(N2CCCCC2)n1 | 12.3 µg/mL (≈ 41 µM) |
| Cc1csc(NC(=O)Cc2ccccc2Cl)n1 | 34.4 µg/mL (≈ 129 µM) |
| Cc1c(C)n(CCc2ccccc2)c2ncnc(NCCCN(C)C)c12 | > 52.7 µg/mL |
| O=C(Cn1ccccc1=S)c1ccc(Cl)c(Cl)c1 | 6.3 µg/mL (≈ 21.1 µM) |
| COc1ccccc1C(=O)NCC(=O)N1CC=C(c2ccccc2)CC1 | 4.5 µg/mL (≈ 12.8 µM) |
| O=C(NC1CCCc2ccccc21)c1ccc2c(c1)OCO2 (centres undefined) | 11.6 µg/mL (≈ 39.3 µM) |
| COC(=O)c1cccc(NC(=O)c2cnccn2)c1 | 9.5 µg/mL (≈ 36.9 µM) |
| CCOc1ccc(CN2C(=O)c3ccccc3C2=O)cc1C(=O)O | > 48.8 µg/mL |
| CCOc1cc(/C=C2/C(=O)ON=C2C)ccc1O | 27.2 µg/mL (≈ 110 µM) |
| COc1ccc(NC(=O)CSCc2ccc([N+](=O)[O-])cc2)cc1OC | 50.1 µg/mL (≈ 138 µM) |
| COc1cc(OC)c(C(=S)N2CCCC2)cc1OC | 38.9 µg/mL (≈ 138 µM) |
| COc1ccc(NC(=O)Nc2cccnc2)cc1 | > 36.5 µg/mL |
| O=C(Nc1nc(-c2cccnc2)cs1)c1ccccc1[N+](=O)[O-] | 0.7 µg/mL (≈ 2.15 µM) |
| O=C(CSc1ncc(-c2ccccc2)[nH]1)Nc1ccccc1F | > 49.1 µg/mL |
| COc1cccc(C(C)NC(=O)Nc2cc(Cl)ccc2OC)c1 (centres undefined) | < 0.4 µg/mL |
| CCc1ccc(CCOc2ccc(CC3SC(=O)NC3=O)cc2)nc1.Cl (centres undefined) | 1.8 µg/mL |
| CC(OCC(O)CN1CCCCC1CCO)c1ccc(Cl)cc1 (centres undefined) | 42.2 µg/mL (≈ 123 µM) |
| NC(=O)c1ccc(NC(=O)COC(=O)C2CC3C=CC2C3)cc1 (centres undefined) | > 47.2 µg/mL |
| CCOc1ccc(NS(=O)(=O)c2cc(C)c(C)cc2C)cc1 | 10.2 µg/mL (≈ 31.9 µM) |
| CC(C)OCCCNC(=O)Cc1ccc(Br)cc1 | 41.6 µg/mL (≈ 132 µM) |
| O=C(CS(=O)(=O)c1ccccc1)NCc1ccccc1 | > 43.4 µg/mL |
| O=[N+]([O-])c1cnc2ccc3ccccc3c2c1 | 3.1 µg/mL (≈ 13.8 µM) |
| NC(=O)c1ccc(NC(=O)CCC(=O)c2cccs2)cc1 | 44.6 µg/mL (≈ 148 µM) |
| CCOC(=O)CNC(=O)C12CC3CC(C1)CC(c1ccc(C)cc1)(C3)C2 | 3.9 µg/mL (≈ 11 µM) |
| COc1ccc(Nc2nc(N)c([N+](=O)[O-])c(NCc3ccccc3)n2)cc1 | < 0.1 µg/mL |

| Compound | solubility kinetic |
| --- | --- |
| Cc1ccc(CN2CCN(c3ncccn3)CC2)c(C)c1 | 19.4 µg/mL (≈ 68.7 µM) |
| COC(=O)c1c(NC(=O)CCCC(=O)O)sc2c1CCCCC2 | > 50.9 µg/mL |
| CC(C)CC(=O)N1CCN(Cc2cccc([N+](=O)[O-])c2)CC1 | 33.2 µg/mL (≈ 109 µM) |
| CSc1ncnc2sc(C)c(C)c12 | 1.3 µg/mL (≈ 6.18 µM) |
| O=C(c1ccoc1)N1CCCC(Nc2ccc(F)c(F)c2)C1 (centres undefined) | 44.5 µg/mL (≈ 145 µM) |
| CN(CC(=O)NC(=O)NC1CCCCC1)Cc1ccccc1 | > 45.5 µg/mL |
| CC(=O)CSc1nnc(-c2ccco2)n1-c1ccccc1 | > 44.9 µg/mL |
| COc1ccc(S(=O)(=O)N2CC(=O)Nc3ccccc32)cc1Cl | > 52.9 µg/mL |
| CN(Cc1cccs1)C(=O)c1ccc(Cl)c(S(=O)(=O)N2CCCCCC2)c1 | 14.1 µg/mL (≈ 33 µM) |
| COc1ccc(C(=O)CN2C(=O)c3ccccc3C2=O)c(OC)c1 | 1.3 µg/mL (≈ 4 µM) |
| O=C(CSc1ccsc1[N+](=O)[O-])NCc1ccccc1 | 9 µg/mL (≈ 29.2 µM) |
| Cc1ccsc1C(=O)OCC(=O)c1cc(C)n(C)c1C | 3.7 µg/mL (≈ 12.7 µM) |
| CN(CC(=O)Nc1cccc(F)c1)C(=O)CC1CC2CCC1C2 (centres undefined) | 4 µg/mL (≈ 12.6 µM) |
| CC(OCCN(C)C)C(=O)C12CC3CC(CC(C3)C1)C2.Cl (centres undefined) | 46.8 µg/mL |
| COc1ccc(CN2CCN(C3CCC3)CC2CCO)c(F)c1 (centres undefined) | 42.2 µg/mL (≈ 131 µM) |
| Cc1cc(C)c2sc(C)[n+](CCCS(=O)(=O)[O-])c2c1 | 38.8 µg/mL (≈ 130 µM) |
| CC(=O)c1ccc(NC(=O)CN2C(=O)NC3(CCc4ccccc43)C2=O)cc1 (centres undefined) | > 56.6 µg/mL |
| COc1ccccc1OCCNC(=O)C1CCN(C(C)=O)CC1 | > 48.1 µg/mL |
| O=C(OCC(=O)N1CCOCC1)c1ccc2ccccc2c1 | > 44.9 µg/mL |
| COc1cc(CN2CCCCCC2)cc(OC)c1OC.O=C(O)C(=O)O | > 55.4 µg/mL |
| Cc1ccc(CCSc2ccc(F)cc2)cn1.O=C(O)C(=O)O | 25.2 µg/mL |
| O=C(c1cc(-c2ccccc2)on1)N1CCC2(CC1)OCCO2 | > 47.2 µg/mL |
| CCOC(=O)COc1nc(-c2ccco2)cc(-c2ccco2)c1C#N | 2.8 µg/mL (≈ 8.28 µM) |
| O=C1OCc2ccc(NC(=O)c3sccc3Cl)cc21 | < 0.6 µg/mL |
| CNC(=O)c1cc(C(=O)c2ccc(F)cc2Cl)c[nH]1 | 14.1 µg/mL (≈ 50.2 µM) |
| Nc1nc(SCC(=O)Nc2cccc([N+](=O)[O-])c2)n[nH]1 | > 44.1 µg/mL |

| Compound | solubility kinetic |
| --- | --- |
| C=CCn1c(O)c(C(C)=NCC2CCCO2)c(=O)[nH]c1=O (centres undefined) | > 44 µg/mL |
| O=C(COC(=O)Cc1ccc(F)cc1)NC1CCCC1 | > 41.9 µg/mL |
| CCOCC(=O)Nc1cc(C)on1 | 22.8 µg/mL (≈ 124 µM) |
| NS(=O)(=O)c1ccc(CCNC(=O)c2ccc3c(=O)n4c(nc3c2)CCCCC4)cc1 | 8.2 µg/mL (≈ 18.6 µM) |
| CNC(=O)c1cc(S(=O)(=O)Nc2ccc3c(c2)OCCO3)ccc1C | > 54.4 µg/mL |
| CC(C)(C)N(CC#CCC(O)(c1ccccc1)c1ccccc1)CCO | 47.1 µg/mL (≈ 134 µM) |
| CCS(=O)(=O)N1CCN(C(=O)c2cccc3ccccc23)CC1 | > 49.9 µg/mL |
| O=C(O)c1ccc2c(c1)C(=O)N(c1cccc3ccccc13)C2=O | > 47.6 µg/mL |
| CC(C)CC(=O)Nc1ccc(-c2cn3cccnc3n2)cc1 | > 44.2 µg/mL |
| COCn1c(C(O)c2ccccc2)cc2ccccc21 (centres undefined) | 38.9 µg/mL (≈ 146 µM) |
| CN(C)C(=O)c1c2c(nc3ccccc13)CCCC2 | 32.2 µg/mL (≈ 127 µM) |
| O=C(Cc1cccs1)N1CCN=C1SCc1cccc(F)c1 | 12.6 µg/mL (≈ 37.7 µM) |
| COc1cc(C(=S)N2CCOCC2)ccc1OC(=O)c1ccccc1C | 10.3 µg/mL (≈ 27.7 µM) |
| O=C(CN1C(=O)c2ccc([N+](=O)[O-])cc2C1=O)NCc1ccco1 | > 49.4 µg/mL |
| O=C(c1ccc([N+](=O)[O-])o1)N1CCCCCC1 | > 35.7 µg/mL |
| O=C(Nc1cccnc1)c1ccc(Cl)cc1[N+](=O)[O-] | > 41.7 µg/mL |
| O=C(Nc1cccc(C(F)(F)F)c1)c1sc(Cl)nc1C(F)(F)F | 36.3 µg/mL (≈ 96.9 µM) |
| Cc1ccc(N=C(N)N=C(N)N)c(C)c1 | 28.8 µg/mL (≈ 140 µM) |
| O=C(C1CCCCC1)N1CCc2[nH]c3ccc(F)cc3c2C1 | 0.4 µg/mL (≈ 1.33 µM) |
| CC(C)(C)NC(=O)NC(=O)CN1CCCCC1 | > 36.2 µg/mL |
| CCOC(=O)c1cc(C#N)c(SCC(=O)OC)[nH]c1=O | > 44.4 µg/mL |
| NS(=O)(=O)c1ccc(N2CCN(S(=O)(=O)Cc3ccccc3)CC2)nc1 | 4.1 µg/mL (≈ 10.3 µM) |
| CCS(=O)(=O)N1CCN=C1SC(C)c1ccccc1 (centres undefined) | 41.4 µg/mL (≈ 139 µM) |
| O=C(NCc1csc2ccccc12)Nc1cc(Cl)cc(Cl)c1 | 2.1 µg/mL (≈ 5.98 µM) |
| Cc1ccc(C(=O)NCCN2CCOCC2)c(Cl)c1 | > 42.4 µg/mL |
| CSc1nc(NCC(C)O)c2c3c(sc2n1)CN(C)CC3 (centres undefined) | 44.7 µg/mL (≈ 138 µM) |
